Measurements taken from US8871767B2, “2-arylimidazo[1,2-B]pyridazine, 2-phenylimidazo[1,2-A]pyridine, and 2-phenylimidazo[1,2-A]pyrazine derivatives” (Hengrui (USA) Ltd., priority 2010, dated 2014).
Read-outs that look alike come from different tables or passages of the source.

Columns and labels:
[1] = test system: Hedgehog pathway activation on 10T1/2/Smo#3 cells (C3H10T1/2 cells transfected with human Smoothened receptor); experiment: Hedgehog pathway activation on 10T1/2/Smo#3 cells measured by ALP activity; assay type: cell-based
Experimental: Hedgehog conditioned media was obtained by transfecting 293H cells with the full length gene encoding human Sonic Hedgehog (hShh) inserted into the pCMV6 expression vector, which contains a neomycin selectable marker and expresses the protein of interest with a C-terminal FLAG affinity tag. After selection in G418 containing media, conditioned media from Hedgehog expressing clones were tested for the ability to activate the hedgehog-responsive GLi-luciferase reporter in the Shh Light II cell line obtained by license from John Hopkins University (Taipale J, et al. Effects of oncogenic mutations in Smoothened and Patched can be reversed by cyclopamine. Nature 406: 1005-1009, 2000).
C3H10T1/2 cells were transfected with a pCMV expression vector containing the full length gene sequence encoding the human Smoothened receptor. Pooled cells, designated 10T1/2/Smo#3, growing in G418 selection media responded to activation by 10-20% conditioned hShh media with an approximate 5-10 fold increase in alkaline phosphaste (ALP) activity over untransfected parent C3H10T1/2 cells as measured by the conversion of the free acid of 4-methylumbelliferyl phosphate to a fluorescent product.
A test compound library was screened against hShh and 500 nM SAG (a direct agonist of the Smoothened receptor) activated 10T1/2/Smo#3 cells and Shh Light II reporter cells for the ability to block Hedgehog pathway activation. Concurrently, cell viability was measured by utilizing Celltiter-Blue® (Promega, Madison Wis.) viability assay. Active compounds were defined as those that inhibited Hedgehog signaling by greater than 50% with no concurrent loss in cell viability.
Their inhibitory activity against Hedgehog pathway activation on 10T1/2/Smo#3 cells as measured by ALP activity and Shh Light II reporter cells as measured by luciferase activity is shown in Table 1 below. In Table 1, +++ stands for an IC50 value that is less than 0.3 μM, ++ between 0.3 and 3 μM, + between 3 and 30 μM.
Additional data for compounds of the invention is shown below in Table 2. Their inhibitory activities against Hedgehog pathway activation are shown as IC50 values in μM on 10T1/2/Smo#3 cells as measured by ALP activity, or on Shh Light II reporter cells as measured by luciferase activity (hShh activation).

[2] = test system: Hedgehog pathway activation (GLi-luciferase reporter) in Shh Light II reporter cells; experiment: Hedgehog pathway activation on Shh Light II reporter cells measured by luciferase activity; assay type: cell-based
How it was run: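 Shh Light II reporter cells carrying a hedgehog-responsive GLi-luciferase reporter were stimulated either with 500 nM SAG, a direct Smoothened agonist, or with conditioned media containing human Sonic Hedgehog (hShh). Test compounds were evaluated for blocking this pathway activation, quantified by luciferase activity. Cell viability was monitored in parallel with the Celltiter-Blue® assay.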

[3] = Mus musculus, C3H 10T1/2, 10T1/2/Smo#3 cells, measured by ALP activity, read-out: ALP (IC50, inhibition of Hedgehog pathway activation)
[4] = Mus musculus, Shh Light II, hShh activation, read-out: Shh (IC50, inhibition of Hedgehog pathway activation)
[5] = Mus musculus, C3H 10T1/2, 10T1/2/Smo#3 cells, hShh activation, ALP activity, read-out: 10T1/2/Smo#3 ALP activity (hShh Activation)
[6] = Mus musculus, Shh Light II, SAG activation (500 nM SAG), read-out: Shh Light II luciferase activity (SAG activation)
[7] = Mus musculus, Shh Light II, hShh activation, read-out: Shh Light II luciferase activity (hShh activation)

With `Cc1ccc(-c2cn3nc(-c4cccnc4C(F)(F)F)ccc3n2)cc1-c1cscn1` [compound 512] the IC50 [1, 3] was 205 nM and the IC50 [2, 4] was 311 nM.
Work on `CCNS(=O)(=O)c1cc(-c2cn3nc(-c4cccnc4C(F)(F)F)ccc3n2)ccc1Cl` [Example 701, 2-chloro-N-ethyl-5-(6-(2-(trifluoromethyl)pyridin-3-yl)imidazo[1,2-b]pyridazin-2-yl)benzenesulfonamide] yielded an IC50 [1, 3] of over 10000 nM and an IC50 [2, 4] of 2620 nM.
`CC(C)(C)C(=O)Nc1cc(-c2cn3nc(-c4c(F)cccc4F)ccc3n2)ccc1C(F)(F)F` [Example 184, N-(5-(6-(2,6-difluorophenyl)imidazo[1,2-b]pyridazin-2-yl)-2-(trifluoromethyl)phenyl)pivalamide] showed an IC50 [1, 3] of 61 nM and an IC50 [2, 4] of 191 nM.
With `CN[C@@H]1CCN(c2ccc3nc(-c4ccc(C)c(NC(=O)C(C)(C)C)c4)cn3n2)C1` [Example 391, (R)-N-(2-methyl-5-(6-(3-(methylamino)pyrrolidin-1-yl)imidazo[1,2-b]pyridazin-2-yl)phenyl)pivalamide] the IC50 [1, 5] was under 300 nM, the IC50 [1, 3] was 123 nM and the IC50 [2, 6] was 300 to 3000 nM. For the same compound, the IC50 [2, 4] was 57 nM and the IC50 [2, 7] was under 300 nM.
`CC(C)Oc1ccc2nc(-c3ccc(C(F)(F)F)c(NC(=O)C(C)(C)C)c3)cn2n1` [Example 181, N-(5-(6-isopropoxyimidazo[1,2-b]pyridazin-2-yl)-2-(trifluoromethyl)phenyl)pivalamide] was tested, and the IC50 [1, 3] was 1070 nM and the IC50 [2, 4] was 245 nM.
For `Cc1ccc(-c2cn3cccnc3n2)cc1NC(=O)CC(C)(C)C` [Example 89, N-(5-(imidazo[1,2-a]pyrimidin-2-yl)-2-methylphenyl)-3,3-dimethylbutanamide], the IC50 [1, 5] was 3000 to 30000 nM, the IC50 [2, 6] was 3000 to 30000 nM and the IC50 [2, 7] was 3000 to 30000 nM.
In the case of `COCCNC1CCN(c2ccc3nc(-c4ccc(C(F)(F)F)c(NC(=O)C(C)(C)C)c4)cn3n2)CC1` [Example 368, N-(5-(6-(4-(2-methoxyethylamino)piperidin-1-yl)imidazo[1,2-b]pyridazin-2-yl)-2-(trifluoromethyl)phenyl)pivalamide], the IC50 [1, 3] is reported as 321 nM and the IC50 [2, 4] is reported as 118 nM.
Work on `Cc1c(-c2ccccc2)nc2ccc(N3CCN(C(=O)CCc4ccccc4)CC3)nn12` [Example 156, 1-(4-(3-methyl-2-phenylimidazo[1,2-b]pyridazin-6-yl)piperazin-1-yl)-3-phenylpropan-1-one] yielded an IC50 [1, 3] of 8840 nM and an IC50 [2, 4] of 3430 nM.
`Cn1cccc1-c1ccc2nc(-c3ccc(C(F)(F)F)c(NC(=O)C(C)(C)C)c3)cn2n1` [Example 379, N-(5-(6-(1-methyl-1H-pyrrol-2-yl)imidazo[1,2-b]pyridazin-2-yl)-2-(trifluoromethyl)phenyl)pivalamide] gave an IC50 [1, 3] of 1860 nM and an IC50 [2, 4] of over 10000 nM.
Work on `COc1ccc2nc(-c3ccc(C)c(NC(=O)C(C)(C)C)c3)c(C)n2n1` [Example 121, N-(5-(6-methoxy-3-methylimidazo[1,2-b]pyridazin-2-yl)-2-methylphenyl)pivalamide] yielded an IC50 [1, 5] of 300 to 3000 nM, an IC50 [1, 3] of 1870 nM and an IC50 [2, 6] of 3000 to 30000 nM. The IC50 [2, 4] was 2000 nM and the IC50 [2, 7] was 300 to 3000 nM.
Work on `Cc1ccc(-c2cn3nc(-c4cc(C(N)=NO)ccc4C(F)(F)F)ccc3n2)cc1NC(=O)C(C)(C)C` [compound 601] yielded an IC50 [1, 3] of 40 nM and an IC50 [2, 4] of 66 nM.
With `CCOC(=O)CCCOc1cccc(-c2ccc3nc(-c4ccc(C)c(NC(=O)C(C)(C)C)c4)cn3n2)c1C(F)(F)F` [Example 426, ethyl 4-(3-(2-(4-methyl-3-pivalamidophenyl)imidazo[1,2-b]pyridazin-6-yl)-2-(trifluoromethyl)phenoxy)butanoate] the IC50 [1, 3] was 707 nM and the IC50 [2, 4] was 170 nM.
For `CCc1ccc(-c2cn3nc(-c4cccnc4C(F)(F)F)ccc3n2)cc1NC(=O)C1(C)CC1` [Example 636, N-(2-ethyl-5-(6-(2-(trifluoromethy)pyridin-3-y)imidazo[1,2-b]pyridazin-2-yl)phenyl)-1-methylcyclopropanecarboxamide], the IC50 ([1]; 10T1/2/Smo#3 cells, measured by ALP activity, read-out: ALP (IC50, inhibition of Hedgehog pathway activation)) was 35 nM and the IC50 ([2]; hShh activation, read-out: Shh (IC50, inhibition of Hedgehog pathway activation)) was 131 nM.
`CC(C)(C)C(=O)Nc1cc(-c2cn3nc(N4CCC5(CC4)OCCO5)ccc3n2)ccc1C(F)(F)F` [Example 371, N-(5-(6-(1,4-dioxa-8-azaspiro[4.5]decan-8-yl)imidazo[1,2-b]pyridazin-2-yl)-2-(trifluoromethyl)phenyl)pivalamide] was tested, and the IC50 [1, 3] was 296 nM and the IC50 [2, 4] was 138 nM.
Compound `Cc1ccc(-c2cn3nc(-c4ccc5nonc5c4)ccc3n2)cc1NC(=O)C(C)(C)C` [Example 449, N-(5-(6-(benzo[c][1,2,5]oxadiazol-5-yl)imidazo[1,2-b]pyridazin-2-yl)-2-methylphenyl)pivalamide] has an IC50 [1, 3] of 281 nM and an IC50 [2, 4] of 311 nM.
`CC1CCCCC1Oc1ccc2nc(-c3ccc(C(F)(F)F)c(NC(=O)C(C)(C)C)c3)cn2n1` (stereo not drawn) [Example 307, N-(5-(6-(2-methylcyclohexyloxy)imidazo[1,2-b]pyridazin-2-yl)-2-(trifluoromethyl)phenyl)pivalamide] was tested, and the IC50 [1, 3] was 400 nM and the IC50 [2, 4] was 352 nM.
Compound `O=C(CC(F)(F)F)Nc1cc(-c2cn3nc(-c4cccnc4C(F)(F)F)ccc3n2)ccc1F` [Example 680, 3,3,3-trifluoro-N-(2-fluoro-5-(6-(2-(trifluoromethyl)pyridin-3-yl)imidazo[1,2-b]pyridazin-2-yl)phenyl)propanamide] has an IC50 [1, 3] of 3610 nM and an IC50 [2, 4] of 518 nM.
With `CC(C)(C)C(=O)Nc1cc(-c2cn3nc(N4CCCC(C(F)(F)F)C4)ccc3n2)ccc1C(F)(F)F` (stereo not drawn) [Example 356, N-(2-(trifluoromethyl)-5-(6-(3-(trifluoromethyl)piperidin-1-yl)imidazo[1,2-b]pyridazin-2-yl)phenyl)pivalamide] the IC50 [1, 3] was 514 nM and the IC50 [2, 4] was 309 nM.
Work on `Cc1c(-c2ccccc2)nc2ccc(N3CCNCC3)nn12` [Example 145, 3-methyl-2-phenyl-6-(piperazin-1-yl)imidazo[1,2-b]pyridazine] yielded an IC50 [1, 5] of 3000 to 30000 nM, an IC50 [1, 3] of 4780 nM and an IC50 [2, 6] of 3000 to 30000 nM. It also gave an IC50 [2, 4] of 5440 nM and an IC50 [2, 7] of 3000 to 30000 nM.
`COc1ccncc1-c1ccc2nc(-c3ccc(C(F)(F)F)c(NC(=O)C(C)(C)C)c3)cn2n1` [Example 384, N-(5-(6-(4-methoxypyridin-3-yl)imidazo[1,2-b]pyridazin-2-yl)-2-(trifluoromethyl)phenyl)pivalamide] gave an IC50 [1, 3] of 227 nM and an IC50 [2, 4] of 689 nM.
Compound `Cc1ccc(-c2cn3nc(-c4cccnc4C(F)(F)F)ccc3n2)cc1NC(=O)NC(C)(C)C` [Example 646, 1-tert-butyl-3-(2-methyl-5-(6-(2-(trifluoromethyl)pyridin-3-yl)imidazo[1,2-b]pyridazin-2-yl)phenyl)urea] has an IC50 [1, 5] of under 300 nM, an IC50 [1, 3] of 16 nM and an IC50 [2, 6] of 300 to 3000 nM. For the same compound, the IC50 [2, 4] was 38 nM and the IC50 [2, 7] was under 300 nM.
Compound `CC(C)(C)C(=O)Nc1cc(-c2cn3nc(N4CCC(F)(F)C4)ccc3n2)ccc1C(F)(F)F` [Example 236, N-(5-(6-(3,3-difluoropyrrolidin-1-yl)imidazo[1,2-b]pyridazin-2-yl)-2-(trifluoromethyl)phenyl)pivalamide] has an IC50 [1, 3] of 100 nM and an IC50 [2, 4] of 289 nM.
`CC(C)(C)C(=O)Nc1cc(-c2cn3nc(C4CC4)ccc3n2)ccc1C(F)(F)F` [Example 139, N-(5-(6-cyclopropylimidazo[1,2-b]pyridazin-2-yl)-2-(trifluoromethyl)phenyl)pivalamide] was tested, and the IC50 [1, 3] was 451 nM and the IC50 [2, 4] was 186 nM.
Compound `Cc1cc(C)c(-c2cn3ncccc3n2)cc1NC(=O)C(C)(C)C` [Example 107, N-(5-(imidazo[1,2-b]pyridazin-2-yl)-2,4-dimethylphenyl)pivalamide] has an IC50 [1, 3] of 7270 nM and an IC50 [2, 4] of 2770 nM.
`Cc1ccc(-c2cn3nc(N4CC[C@@H](O)C4)ccc3n2)cc1NC(=O)C(C)(C)C` [Example 347, (R)-N-(5-(6-(3-hydroxypyrrolidin-1-yl)imidazo[1,2-b]pyridazin-2-yl)-2-methylphenyl)pivalamide] showed an IC50 [1, 3] of 22 nM and an IC50 [2, 4] of 46 nM.
